In ChEMBL document CHEMBL3137667, “[Drug-induced liver injury; fourteenth updated edition of the bibliographic database of liver injuries and related drugs]” (Gastroenterol Clin Biol, 2004):

Columns and labels:
[1] = human
[2] = human; remark: listed apart in the source
[3] = human; remark: listed apart in the source
[4] = human, serum, 4383 h
[5] = human; remark: listed apart in the source
[6] = human; remark: listed apart in the source
[7] = human; remark: listed apart in the source
[8] = human; remark: listed apart in the source
[9] = Highest frequency of acute liver toxicity observed during clinical trials, expressed as a percentage. [column '% AIGUE' in source]; conditions: human
[10] = human; remark: listed apart in the source
[11] = human; remark: listed apart in the source
[12] = human, serum
[13] = Comments (NB not yet translated). [column 'COMMENTAIRES' in source]; conditions: human
[14] = Times to onset, minimal and maximal, observed in the indexed observations. [column 'DELAI' in source]; conditions: human
[15] = Highest frequency of moderate liver toxicity observed during clinical trials, expressed as a percentage. [column '% BIOL' in source]; conditions: human
[16] = human, serum; remark: listed apart in the source
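Throughout, for Hepatotoxicity (association with vascular disease): count of indexed literature references reporting vascular liver injury in humans, e.g. peliosis hepatitis, hepatic veno-occlusive disease or Budd-Chiari syndrome.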
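Throughout, for Hepatotoxicity (benign tumour): value is a count of indexed literature references citing a benign tumour confirmed by histopathology.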
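Throughout, for Hepatotoxicity (choleostasis): human cholestatic liver injury, shown by histopathology or by peak ALT or AST elevation over alkaline phosphatase ratio below 2, value counts indexed literature reports.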
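Throughout, for Hepatotoxicity (chronic liver disease): chronic liver injury confirmed by histopathology or persistently raised serum aminotransferase activity beyond 6 months, value given as the count of indexed literature references.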
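Throughout, for Hepatotoxicity (cirrhosis): value is a count of indexed literature references reporting cirrhosis confirmed by histopathology.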
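Throughout, for Hepatotoxicity (cytolytic): human cytolytic liver injury, shown by histopathology or by a ratio above 5 of peak ALT or AST elevation to alkaline phosphatase elevation, value counts indexed references.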
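Throughout, for Hepatotoxicity (granulomatous hepatitis): value is a count of indexed literature references reporting granulomatous liver disease confirmed by histopathology.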
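Throughout, for Hepatotoxicity (malignant tumour): malignant tumour confirmed by histopathology, value gives the count of indexed literature references reporting it.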
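Throughout, for Hepatotoxicity (severe hepatitis): human clinical data: severe hepatitis, meaning potentially life-threatening liver failure or clinically observed cases, the value counts how many indexed literature references report it.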
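Throughout, for Hepatotoxicity (steatosis): steatosis confirmed by histopathology, value is the count of indexed references.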

For CC/C(=C(/CC)c1ccc(OP(=O)(O)O)cc1)c1ccc(OP(=O)(O)O)cc1 [DIETHYLSTILBESTROL DIPHOSPHATE], the “Hepatotoxicity (steatosis)” value [1] was 1, the “Hepatotoxicity (cytolytic)” value [2] was 0 and the “Hepatotoxicity (choleostasis)” value [3] was 0. For the same molecule, the “Hepatotoxicity (chronic liver disease)” value [4] was 1, the “Hepatotoxicity (association with vascular disease)” value [5] was 0 and the “Hepatotoxicity (severe hepatitis)” value [6] was 0. For the same molecule, the “Hepatotoxicity (cirrhosis)” value [7] was 1, the “Hepatotoxicity (malignant tumour)” value [8] was 0 and the “Hepatotoxicity (acute)” value [9] was 0%. For the same molecule, the “Hepatotoxicity (granulomatous hepatitis)” value [10] was 0, the “Hepatotoxicity (benign tumour)” value [11] was 0 and the “Hepatotoxicity (acute)” value [12] was 0. The “Hepatotoxicity (comment)” value [13] was “NASH”, the “Hepatotoxicity (time to onset)” value [14] was 3 months - 9 years and the “Hepatotoxicity (moderate)” value [15] was 6.3%. For the same molecule, the “Hepatotoxicity (moderate)” value [16] was 1.
For CC/C(=C(/CC)c1ccc(O)cc1)c1ccc(O)cc1 [DIETHYLSTILBESTROL], the “Hepatotoxicity (steatosis)” value [1] was 0, the “Hepatotoxicity (cytolytic)” value [2] was 0 and the “Hepatotoxicity (choleostasis)” value [3] was 4. The “Hepatotoxicity (chronic liver disease)” value [4] was 0, the “Hepatotoxicity (association with vascular disease)” value [5] was 1 and the “Hepatotoxicity (severe hepatitis)” value [6] was 1. For the same molecule, the “Hepatotoxicity (cirrhosis)” value [7] was 0, the “Hepatotoxicity (malignant tumour)” value [8] was 6 and the “Hepatotoxicity (acute)” value [9] was 0%. For the same molecule, the “Hepatotoxicity (granulomatous hepatitis)” value ([10]; Liver) was 0, the “Hepatotoxicity (benign tumour)” value [11] was 0 and the “Hepatotoxicity (acute)” value [12] was 5. The “Hepatotoxicity (comment)” value [13] was “ANGIOSARCOME RC/TAMOXIFENE”, the “Hepatotoxicity (time to onset)” value [14] was 4 days - 15 years and the “Hepatotoxicity (moderate)” value [15] was 19%. The “Hepatotoxicity (moderate)” value [16] was 3.
For CN(C)CC/C=C1\c2ccccc2CSc2ccccc21 [DOTHIEPIN], the “Hepatotoxicity (steatosis)” value [1] was 1, the “Hepatotoxicity (cytolytic)” value [2] was 2 and the “Hepatotoxicity (choleostasis)” value [3] was 2. For the same molecule, the “Hepatotoxicity (chronic liver disease)” value [4] was 0, the “Hepatotoxicity (association with vascular disease)” value [5] was 0 and the “Hepatotoxicity (severe hepatitis)” value [6] was 0. For the same molecule, the “Hepatotoxicity (cirrhosis)” value [7] was 0, the “Hepatotoxicity (malignant tumour)” value [8] was 0 and the “Hepatotoxicity (acute)” value [9] was 0%. The “Hepatotoxicity (granulomatous hepatitis)” value [10] was 0, the “Hepatotoxicity (benign tumour)” value [11] was 0 and the “Hepatotoxicity (acute)” value [12] was 3. The “Hepatotoxicity (comment)” value [13] was “RC/PAROXETINE”, the “Hepatotoxicity (time to onset)” value [14] was 40 days - 69 days and the “Hepatotoxicity (moderate)” value [15] was 4.5%. For the same molecule, the “Hepatotoxicity (moderate)” value [16] was 1.
For C[C@]12CC[C@@H]3c4ccc(OS(=O)(=O)O)cc4CC[C@H]3[C@@H]1CCC2=O [ESTRONE SULFURIC ACID], the “Hepatotoxicity (steatosis)” value [1] was 0, the “Hepatotoxicity (cytolytic)” value [2] was 0 and the “Hepatotoxicity (choleostasis)” value [3] was 1. The “Hepatotoxicity (chronic liver disease)” value [4] was 0, the “Hepatotoxicity (association with vascular disease)” value [5] was 0 and the “Hepatotoxicity (severe hepatitis)” value [6] was 0. The “Hepatotoxicity (cirrhosis)” value [7] was 0, the “Hepatotoxicity (malignant tumour)” value [8] was 0 and the “Hepatotoxicity (acute)” value [9] was 0%. For the same molecule, the “Hepatotoxicity (granulomatous hepatitis)” value [10] was 0, the “Hepatotoxicity (benign tumour)” value [11] was 1 and the “Hepatotoxicity (acute)” value [12] was 1. For the same molecule, the “Hepatotoxicity (comment)” value [13] was “HNF”, the “Hepatotoxicity (time to onset)” value [14] was 3 months - 1 year and the “Hepatotoxicity (moderate)” value [15] was 22.9%. For the same molecule, the “Hepatotoxicity (moderate)” value [16] was 5.
With CCc1cccc2c3c([nH]c12)C(CC)(CC(=O)O)OCC3 (stereo not given) [ETODOLAC] the “Hepatotoxicity (steatosis)” value [1] was 1, the “Hepatotoxicity (cytolytic)” value [2] was 2 and the “Hepatotoxicity (choleostasis)” value [3] was 2. For the same molecule, the “Hepatotoxicity (chronic liver disease)” value [4] was 0, the “Hepatotoxicity (association with vascular disease)” value [5] was 0 and the “Hepatotoxicity (severe hepatitis)” value [6] was 1. For the same molecule, the “Hepatotoxicity (cirrhosis)” value [7] was 0, the “Hepatotoxicity (malignant tumour)” value [8] was 0 and the “Hepatotoxicity (acute)” value [9] was 0%. The “Hepatotoxicity (granulomatous hepatitis)” value [10] was 0, the “Hepatotoxicity (benign tumour)” value [11] was 0 and the “Hepatotoxicity (acute)” value [12] was 3. For the same molecule, the “Hepatotoxicity (comment)” value [13] was “AC_ANTI-N/-ML”, the “Hepatotoxicity (time to onset)” value [14] was 4 days - 16 weeks and the “Hepatotoxicity (moderate)” value [15] was 4%. For the same molecule, the “Hepatotoxicity (moderate)” value [16] was 4.
